In patent publication US20100330136A1, “USE OF CATIONIC SURFACTANTS FOR THE PROTECTION AGANST TOOTH EROSION” (priority 2008, published 2010):

How the values were obtained:
[1] = Tooth coating effect: surface energy from contact angles of sessile drops (Glantz method); assay type: physicochemical; conditions: for Surface Energy: enamel without LAE ca 23 dyn/cm
Text: The tooth coating effect by LAE was validated by the methods described by Glantz PO (1981. “Adhesion in the oral cavity” In Fundamentals and application of surface interactions in the oral cavity (ed. S. A. Leach), pp 49-64. Information Retrieval Ltd. London). The method measures contact angles of sessile drops from liquids with a range of polarities to determine the polar component of the surface energy (gamma p) and dispersive component on teeth coated with LAE. Without LAE the surface energy was 23 dyn/cm. […] In the presence of LAE the surface energy was reduced to a lowest level of 11.5 dyn/cm. This coating provides a shielding effect on teeth against erosion caused by acids from food and beverages.
The surface energy of enamel is ca 23 dyn/cm. This surface energy is reduced by the presence of LAE to the following values: […]

A. naeslundii = experiment: Antimicrobial activity on the biofilm (Zurich Biofilm Model); assay type: cell-based, Actinomyces naeslundii; conditions: 0.5% LAE; 6 exposures of 1 minute in two days, evaluated 16 h after last exposure; control 8.3
Procedure: (§1) The biofilm model is a reliable tool to predict the in vivo efficacy of antimicrobials, and de- and remineralization of enamel exposed to biofilms in vitro. The experiments were performed with the Zurich Biofilm Model. Biofilms are formed either on hydroxyapatite (HA) or bovine enamel disks that have preconditioned in pooled, unstimulated saliva. Biofilms are formed in 24-well cell culture dishes incubated anaerobically at 37° C. The detailed description to the preparation of this model was published by Guggenheim et al., 2001, J. Dent. Res. 80 (1) 363-370. The microbial composition of this biofilm was constituted by five bacterial species and a yeast. More specifically, they are as follows: Streptococcus oralis, Streptococcus sobrinus, Actinomyces naeslundii, Veillonella dispar and Fusobacterium nucleatum and the yeast studied was Candida albicans. The bacteria chosen for incorporation into this biofilm model were five species encountered in supragingival plaque.
(§2) Most of the biofilm models are based on a continuous flow culture system which means that biofilms are subjected to shear or detachment forces. In contrast, the biofilm model used in these experiments was based on a batch culture system that was subjected only intermittently to such forces in the course of dip-washing or gentle swirling. […]
(§3) The results of the following table were expressed as log10 of CFU: […]

V. dispar = experiment: as above; assay type: cell-based, Veillonella dispar; conditions: 0.5% LAE; 6 exposures of 1 minute in two days, evaluated 16 h after last exposure; control 8.1
Procedure: as §1, §2, §3

F. nucleatum = experiment: as above; assay type: cell-based, Fusobacterium nucleatum; conditions: 0.5% LAE; 6 exposures of 1 minute in two days, evaluated 16 h after last exposure; control 5.1
Procedure: as §1, §2, §3

S. sobrinus = experiment: as above; assay type: cell-based, Streptococcus sobrinus; conditions: 0.5% LAE; 6 exposures of 1 minute in two days, evaluated 16 h after last exposure; control 8.6
Procedure: as §1, §2, §3

S. oralis = experiment: as above; assay type: cell-based, Streptococcus oralis; conditions: 0.5% LAE; 6 exposures of 1 minute in two days, evaluated 16 h after last exposure; control 9.0
Procedure: as §1, §2, §3

C. albicans = experiment: as above; assay type: cell-based, Candida albicans; conditions: 0.5% LAE; 6 exposures of 1 minute in two days, evaluated 16 h after last exposure; control 5.1
Procedure: as §1, §2, §3

[2] = tested on: microorganisms in biofilm (five bacterial species and a yeast); experiment: Re-growth of biofilms after LAE exposure (Zurich Biofilm Model); assay type: cell-based; conditions: 1% LAE
Procedure: as §1
Most of the biofilm models are based on a continuous flow culture system which means that biofilms are subjected to shear or detachment forces. In contrast, the biofilm model used in these experiments was based on a batch culture system that was subjected only intermittently to such forces in the course of dip-washing or gentle swirling. Thus, this biofilm model allows for controlled substance exposure times resembling those encountered during mouth rinsing.
The biofilms were exposed to LAE only 6 times during 1 minute in two subsequent days. The evaluation of the LAE effects was studied 16 h after the last exposure.
This experiment compared the re-growth of microorganisms in a control biofilm against a biofilm exposed to LAE. The content of microorganisms in each biofilm was studied along the time. For each point of analysis the growth of microorganisms was studied before and after a dip in a saline solution for control biofilms and in LAE for the other biofilms after each feeding.
The results are expressed as log10 of CFU: […]

[3] = Effect of LAE on acids generated from sugar rinses: pH on tooth plaque interfaces; assay type: in vivo, Humans; conditions: for intraoral pH after 10% sucrose rinse: 0.16% LAE, humans
Text: It has been established, that beverages and food containing sugars promote tooth erosion. The American Dental Association (ADA) food and nutrition programs recommend a procedure for evaluating pH in the mouth after ingestion of food and beverages. This is summarized in the FDA guidelines published in Federal Register 43433, vol 61, No. 165, 1996. The procedure involved measuring pH on tooth plaque interfaces after giving the subjects (6 subjects per group) 10% sucrose rinse in the presence or absence of treatment with 0.16% LAE versus placebo solution containing flavor, sweetener, plasticizer (components of chewing gum) to assess their acid neutralizing effects. […] Whereas rinsing with LAE maintains a pH of 5.4±0.3 which is above the danger zone maintained for 3 and 7 days of continuous monitoring. This validates that LAE not only coats the surface of teeth but maintains a healthy pH around teeth to prevent erosion.
Another effect produced by LAE is the pH neutralization. Upon hydrolysis LAE forms arginine which is a natural pH neutralizer in human saliva. The following table reports the intraoral pH with LAE versus a placebo from 0 to 7 days after 10% sucrose rinse: […]

[4] = tested on: Arthrobacter oxydans ATCC 8010; conditions: Gram + bacteria; cited from earlier work
[5] = tested on: Bacillus cereus var mycoide ATCC 11778; conditions: Gram + bacteria; cited from earlier work
[6] = tested on: Bacillus subtilis ATCC 6633; conditions: Gram + bacteria; cited from earlier work
[7] = tested on: Clostridium perfringens ATCC 77454; conditions: Gram + bacteria; cited from earlier work
[8] = tested on: Listeria monocytogenes ATCC 7644; conditions: Gram + bacteria; cited from earlier work
[9] = tested on: Staphylococcus aureus ATCC 6538; conditions: Gram + bacteria; cited from earlier work
[10] = tested on: Micrococcus luteus ATCC 9631; conditions: Gram + bacteria; cited from earlier work
[11] = tested on: Lactobacillus delbrueckii ssp lactis CECT 372; conditions: Gram + bacteria; cited from earlier work
[12] = tested on: Leuconostoc mesenteroides CETC 912; conditions: Gram + bacteria; cited from earlier work
[13] = tested on: Streptococcus mutans ATCC 25175; conditions: Gram + bacteria; cited from earlier work
[14] = tested on: Alcaligenes faecalis ATCC 8750; conditions: Gram − bacteria; cited from earlier work
[15] = tested on: Bordetella bronchiseptica ATCC 4617; conditions: Gram − bacteria; cited from earlier work
[16] = tested on: Citrobacter freundii ATCC 22636; conditions: Gram − bacteria; cited from earlier work
[17] = tested on: Enterobacter aerogenes CECT 689; conditions: Gram − bacteria; cited from earlier work
[18] = tested on: Escherichia coli ATCC 8739; conditions: Gram − bacteria; cited from earlier work
Escherichia coli 0157H7 = conditions: Gram − bacteria; cited from earlier work
[19] = tested on: Klebsiella pneumoniae var pneumoniae CECT 178; conditions: Gram − bacteria; cited from earlier work
[20] = tested on: Proteus mirabilis CECT 170; conditions: Gram − bacteria; cited from earlier work
[21] = tested on: Pseudomonas aeruginosa ATCC 9027; conditions: Gram − bacteria; cited from earlier work
[22] = tested on: Salmonella typhimurium ATCC16028; conditions: Gram − bacteria; cited from earlier work
[23] = tested on: Serratia marcenses CECT 274; conditions: Gram − bacteria; cited from earlier work
[24] = tested on: Mycobacterium phlei ATCC 41423; conditions: listed under Gram − bacteria; cited from earlier work
[25] = tested on: Aspergillus niger ATCC14604; conditions: Fungi; cited from earlier work
[26] = tested on: Aureobasidium pullulans ATCC 9348; conditions: Fungi; cited from earlier work
[27] = tested on: Gliocadium virens ATCC 4645; conditions: Fungi; cited from earlier work
[28] = tested on: Chaetonium globosum ATCC 6205; conditions: Fungi; cited from earlier work
[29] = tested on: Penicillium chrysogenum CECT 2802; conditions: Fungi; cited from earlier work
[30] = tested on: Penicillium funiculosum CECT 2914; conditions: Fungi; cited from earlier work
[31] = tested on: Candida albicans ATCC 10231; conditions: Yeast; cited from earlier work
[32] = tested on: Rhodotorula rubra CECT 1158; conditions: Yeast; cited from earlier work
[33] = tested on: Saccharomyces cerevisiae ATCC 9763; conditions: Yeast; cited from earlier work
[34] = rats; cited from earlier work
[35] = cited from earlier work

## CCCCCCCCCCCC(=O)N[C@@H](CCCN=C(N)N)C(=O)OCC.Cl [LAE, ethyl ester of the lauramide of the arginine monohydrochloride]
[1]; [LAE] 0.00001 %
  Surface Energy: 21.5 dyn/cm
[1]; [LAE] 0.001 %
  Surface Energy: 16.5 dyn/cm
[1]; [LAE] 0.01 %
  Surface Energy: 11.5 dyn/cm
[1]; [LAE] 0.1 %
  Surface Energy: 14 dyn/cm
[1]; [LAE] 1 %
  Surface Energy: 12 dyn/cm
[1]; lowest level, without LAE 23 dyn/cm
  Surface energy, lowest level in the presence of LAE: 11.5 dyn/cm
A. naeslundii
  log10 of CFU in biofilm: 2.5 log10 of CFU
V. dispar
  log10 of CFU in biofilm: 5.0 log10 of CFU
F. nucleatum
  log10 of CFU in biofilm: 2.1 log10 of CFU
S. sobrinus
  log10 of CFU in biofilm: 6.1 log10 of CFU
S. oralis
  log10 of CFU in biofilm: 6.1 log10 of CFU
C. albicans
  log10 of CFU in biofilm: 2.1 log10 of CFU
[2]; 16.5 h, After 1 dip, control 7.2
  log10 of CFU, biofilm re-growth: 3.5 log10 of CFU
[2]; 16.5 h, Before 1 dip, control 7.1
  log10 of CFU, biofilm re-growth: 7.1 log10 of CFU
[2]; 24.5 h, After 3 dip, control 7.4
  log10 of CFU, biofilm re-growth: 2.2 log10 of CFU
[2]; 24.5 h, Before 3 dip, control 8.1
  log10 of CFU, biofilm re-growth: 1.4 log10 of CFU
[2]; 40.5 h, After 4 dip, control 8.1
  log10 of CFU, biofilm re-growth: 1.2 log10 of CFU
[2]; 40.5 h, Before 4 dip, control 8.1
  log10 of CFU, biofilm re-growth: 5.9 log10 of CFU
[2]; 48.5 h, After 6 dip, control 8.4
  log10 of CFU, biofilm re-growth: 1.2 log10 of CFU
[2]; 48.5 h, Before 6 dip, control 8.5
  log10 of CFU, biofilm re-growth: 3.2 log10 of CFU
[2]; 64.5 h, Endpoint, control 9.0
  log10 of CFU, biofilm re-growth: 4.3 log10 of CFU
[3]; Day 0, placebo 6
  intraoral pH after 10% sucrose rinse: 6
[3]; Day 3, placebo 4.3
  intraoral pH after 10% sucrose rinse: 5.3
[3]; Day 7, placebo 4.3
  intraoral pH after 10% sucrose rinse: 5.2
[3]; maintained for 3 and 7 days of continuous monitoring, 0.16% LAE rinse, placebo 4.3±0.2, danger zone below pH 5
  pH of the tooth interface after 10% sucrose rinse: 5.4±0.3
[4]
  M.I.C.: 64 ppm
[5]
  M.I.C.: 32 ppm
[6]
  M.I.C.: 16 ppm
[7]
  M.I.C.: 16 ppm
[8]
  M.I.C.: 10 ppm
[9]
  M.I.C.: 32 ppm
[10]
  M.I.C.: 128 ppm
[11]
  M.I.C.: 16 ppm
[12]
  M.I.C.: 32 ppm
[13]
  M.I.C.: 64 ppm
[14]
  M.I.C.: 64 ppm
[15]
  M.I.C.: 128 ppm
[16]
  M.I.C.: 64 ppm
[17]
  M.I.C.: 32 ppm
[18]
  M.I.C.: 32 ppm
Escherichia coli 0157H7
  M.I.C.: 20 ppm
[19]
  M.I.C.: 32 ppm
[20]
  M.I.C.: 32 ppm
[21]
  M.I.C.: 64 ppm
[22]
  M.I.C.: 32 ppm
[23]
  M.I.C.: 32 ppm
[24]
  M.I.C.: 2 ppm
[25]
  M.I.C.: 32 ppm
[26]
  M.I.C.: 16 ppm
[27]
  M.I.C.: 32 ppm
[28]
  M.I.C.: 16 ppm
[29]
  M.I.C.: 128 ppm
[30]
  M.I.C.: 16 ppm
[31]
  M.I.C.: 16 ppm
[32]
  M.I.C.: 16 ppm
[33]
  M.I.C.: 32 ppm
[34]
  absorption and metabolism: fast absorption and metabolisation into naturally-occurring amino acids and the fatty acid lauric acid
[35]; human beings
  tolerance and toxicity in practical use: well tolerated and to display a very low toxicity to human beings
[35]; toxicological studies, animals and humans
  toxicity: completely harmless to animals and humans
